# Measurements: US20100249093A1, “Substituted Heteroarylpiperidine Derivatives As Melanocortin-4 Receptor Modulators” (SANTHERA PHARMACEUTICALS (SCHWEIZ) AG, priority 2007, published 2010)
# Experiments:
# [1] = target: T1, human melanocortin-4 receptor (MC-4R) (Homo sapiens, UniProt P32245); experiment: Membrane binding assay: competition with fluorescence labeled NDP-alpha-MSH, fluorescence polarization; conditions: HEK293 cell membrane preparations expressing human MC-4R, read-out: hMC-4R binding assay IC50
# T1 construct: expressed in transfected cells; host or cells: HEK293
# T1 sequence (P32245 whole entry): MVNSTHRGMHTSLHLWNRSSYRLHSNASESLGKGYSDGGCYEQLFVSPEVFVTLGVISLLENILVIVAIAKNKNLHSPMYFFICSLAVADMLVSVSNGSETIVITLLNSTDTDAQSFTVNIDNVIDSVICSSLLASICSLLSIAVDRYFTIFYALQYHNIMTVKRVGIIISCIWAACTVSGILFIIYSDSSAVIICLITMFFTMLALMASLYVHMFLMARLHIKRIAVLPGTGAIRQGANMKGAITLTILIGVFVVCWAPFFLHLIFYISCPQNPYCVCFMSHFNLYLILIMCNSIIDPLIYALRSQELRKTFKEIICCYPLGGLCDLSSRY
# [2] = target: T1, human melanocortin-4 receptor (MC-4R); experiment: Functional assay: agonistic activity, cAMP production in membrane preparations compared with NDP-alpha-MSH, fluorescence polarization; format: biochemical; conditions: for Emax: cAMP produced compared to stimulation with NDP-alpha-MSH, read-out: % activation functional assay
IC50 [1],Emax [2],"EC50 ([2]; cAMP production, membrane preparations from HEK293 cells expressing human MC-4R, read-out: hMC-4R functional assay EC50)",Structure (SMILES)
≤ 100 nM,0%,–,Cc1ccc(C2CCN(C(=O)[C@@H](Cc3ccc(Cl)cc3Cl)NC(=O)N3CCCC3)CC2)c(NCCN2CCCC2)n1 [Example 1]
≤ 100 nM,0%,–,Cc1ccc(C2CCN(C(=O)[C@@H](Cc3ccc(Cl)cc3Cl)NC(=O)N3CCCC3)CC2)c(N(C)CCN2CCCC2)n1 [Example 2]
100 to 1000 nM,0%,–,Cc1cnc(N(C)CCN2CCCC2)c(C2CCN(C(=O)[C@@H](Cc3ccc(Cl)cc3Cl)NC(=O)N3CCCC3)CC2)c1 [Example 3]
≤ 100 nM,0%,–,Cc1ccc(C2CCN(C(=O)[C@@H](Cc3ccc(Cl)cc3Cl)NC(=O)N3CCCC3)CC2)c(N2CCN(C)CC2)n1 [Example 4]
≤ 100 nM,0%,–,O=C(N[C@H](Cc1ccc(Cl)cc1Cl)C(=O)N1CCC(c2cccnc2OCCN2CCCC2)CC1)N1CCCC1 [Example 5]
≤ 100 nM,0%,–,Cc1ccc(C2CCN(C(=O)[C@@H](Cc3ccc(Cl)cc3Cl)NC(=O)N3CCCC3)CC2)c(OCCN2CCCC2)n1 [Example 6]
≤ 100 nM,0%,–,CC[C@@H](CN1CCCC1)Oc1ncccc1C1CCN(C(=O)[C@@H](Cc2ccc(Cl)cc2Cl)NC(=O)N2CCCC2)CC1 [Example 7]
≤ 100 nM,0%,–,CC[C@@H](CN1CCCC1)Oc1ncc(C)cc1C1CCN(C(=O)[C@@H](Cc2ccc(Cl)cc2Cl)NC(=O)N2CCCC2)CC1 [Example 9]
≤ 100 nM,0%,–,CC[C@@H](CN1CCCC1)Oc1cnccc1C1CCN(C(=O)[C@@H](Cc2ccc(Cl)cc2Cl)NC(=O)N2CCCC2)CC1 [Example 11]
≤ 100 nM,0%,–,CC[C@@H](CN1CCCC1)Oc1ccncc1C1CCN(C(=O)[C@@H](Cc2ccc(Cl)cc2Cl)NC(=O)N2CCCC2)CC1 [Example 12]
100 to 1000 nM,0%,–,CC[C@H](COc1ccncc1C1CCN(C(=O)[C@@H](Cc2ccc(Cl)cc2Cl)NC(=O)N2CCCC2)CC1)N(C)C [Example 13]
100 to 1000 nM,0%,–,O=C(N[C@H](Cc1ccc(Cl)cc1Cl)C(=O)N1CCC(c2ncccc2OCCN2CCCC2)CC1)N1CCCC1 [Example 14]
≤ 100 nM,0%,–,C[C@@H](CN(C)C)Oc1cccnc1C1CCN(C(=O)[C@@H](Cc2ccc(Cl)cc2Cl)NC(=O)N2CCCC2)CC1 [Example 15]
≤ 100 nM,0%,–,C[C@@H](CN1CCCC1)Oc1cccnc1C1CCN(C(=O)[C@@H](Cc2ccc(Cl)cc2Cl)NC(=O)N2CCCC2)CC1 [Example 16]
≤ 100 nM,0%,–,CC[C@@H](CN1CCCC1)Oc1cccnc1C1CCN(C(=O)[C@@H](Cc2ccc(Cl)cc2Cl)NC(=O)N2CCCC2)CC1 [Example 17]
≤ 100 nM,0%,–,CC[C@H](COc1cccnc1C1CCN(C(=O)[C@@H](Cc2ccc(Cl)cc2Cl)NC(=O)N2CCCC2)CC1)N(C)C [Example 18]
≤ 100 nM,0%,–,CN(C)C(C)(C)COc1cccnc1C1CCN(C(=O)[C@@H](Cc2ccc(Cl)cc2Cl)NC(=O)N2CCCC2)CC1 [Example 20]
≤ 100 nM,0%,–,CN1CCC[C@H](Oc2cccnc2C2CCN(C(=O)[C@@H](Cc3ccc(Cl)cc3Cl)NC(=O)N3CCCC3)CC2)C1 [Example 21]
≤ 100 nM,0%,–,C[C@H](Oc1cccnc1C1CCN(C(=O)[C@@H](Cc2ccc(Cl)cc2Cl)NC(=O)N2CCCC2)CC1)[C@@H](C)N(C)C [Example 22]

IC50 [1],Emax [2],"EC50 ([2]; cAMP production, membrane preparations from HEK293 cells expressing human MC-4R, read-out: hMC-4R functional assay EC50)",Structure (SMILES)
100 to 1000 nM,0%,–,CN1CCN(c2cccnc2C2CCN(C(=O)[C@@H](Cc3ccc(Cl)cc3Cl)NC(=O)N3CCCC3)CC2)CC1 [Example 23]
≤ 100 nM,0%,–,CC[C@H](COc1cc(C)cnc1C1CCN(C(=O)[C@@H](Cc2ccc(Cl)cc2Cl)NC(=O)N2CCCC2)CC1)N1CCCC1 [Example 24]
≤ 100 nM,0%,–,C[C@H](COc1cccnc1C1CCN(C(=O)[C@@H](Cc2ccc(Cl)cc2Cl)NC(=O)N2CCCC2)CC1)N(C)C [Example 25]
≤ 100 nM,0%,–,CC[C@H](COc1cc(C)cnc1C1CCN(C(=O)[C@@H](Cc2ccc(Cl)cc2Cl)NC(=O)N2CCCC2)CC1)N(C)C [Example 27]
100 to 1000 nM,0%,–,CN1CCN(Cc2cccnc2C2CCN(C(=O)[C@@H](Cc3ccc(Cl)cc3Cl)NC(=O)N3CCCC3)CC2)CC1 [Example 28]
≤ 100 nM,-8%,–,CC(C)[C@H](COc1cccnc1C1CCN(C(=O)[C@@H](Cc2ccc(Cl)cc2Cl)NC(=O)N2CCCC2)CC1)N(C)C [Example 30]
≤ 100 nM,-3%,–,CC[C@@H](COc1cccnc1C1CCN(C(=O)[C@@H](Cc2ccc(Cl)cc2Cl)NC(=O)N2CCCC2)CC1)N1CCCC1 [Example 31]
≤ 100 nM,36%,> 1000 nM,CC[C@@H](CN(C)C)Oc1cccnc1C1CCN(C(=O)[C@@H](Cc2ccc(Cl)cc2Cl)NC(=O)N2CCCC2)CC1 [Example 32]
100 to 1000 nM,0%,–,CC[C@@H](COc1cccnc1C1CCN(C(=O)[C@@H](Cc2ccc(Cl)cc2Cl)NC(=O)N2CCCC2)CC1)N(C)C [Example 33]
> 1000 nM,-3%,–,CC[C@H](CN(C)C)Oc1cccnc1C1CCN(C(=O)[C@@H](Cc2ccc(Cl)cc2Cl)NC(=O)N2CCCC2)CC1 [Example 34]
100 to 1000 nM,7%,–,CC[C@H](COc1c(C)ccnc1C1CCN(C(=O)[C@@H](Cc2ccc(Cl)cc2Cl)NC(=O)N2CCCC2)CC1)N(C)C [Example 35]
≤ 100 nM,8%,–,CC[C@H](COc1cc(OC)cnc1C1CCN(C(=O)[C@@H](Cc2ccc(Cl)cc2Cl)NC(=O)N2CCCC2)CC1)N(C)C [Example 36]
100 to 1000 nM,-2%,–,CN1CCN(CCOc2cccnc2C2CCN(C(=O)[C@@H](Cc3ccc(Cl)cc3Cl)NC(=O)N3CCCC3)CC2)CC1 [Example 37]
100 to 1000 nM,-5%,–,CN1CCC(Oc2cccnc2C2CCN(C(=O)[C@@H](Cc3ccc(Cl)cc3Cl)NC(=O)N3CCCC3)CC2)CC1 [Example 38]
≤ 100 nM,-13%,–,CN1CCN(Cc2cc(Cl)cnc2C2CCN(C(=O)[C@@H](Cc3ccc(Cl)cc3Cl)NC(=O)N3CCCC3)CC2)CC1 [Example 39]
≤ 100 nM,-11%,–,CC[C@H](COc1cc(Cl)cnc1C1CCN(C(=O)[C@@H](Cc2ccc(Cl)cc2Cl)NC(=O)N2CCCC2)CC1)N1CCCC1 [Example 40]
100 to 1000 nM,-1%,–,CN1CC(Oc2cccnc2C2CCN(C(=O)[C@@H](Cc3ccc(Cl)cc3Cl)NC(=O)N3CCCC3)CC2)C1 [Example 41]
100 to 1000 nM,-1%,–,CN1CC[C@H](Oc2cccnc2C2CCN(C(=O)[C@@H](Cc3ccc(Cl)cc3Cl)NC(=O)N3CCCC3)CC2)C1 [Example 42]

Structure (SMILES),IC50 [1],Emax [2],"EC50 ([2]; cAMP production, membrane preparations from HEK293 cells expressing human MC-4R, read-out: hMC-4R functional assay EC50)"
O=C(N[C@H](Cc1ccc(Cl)cc1Cl)C(=O)N1CCC(c2cccnc2O[C@H]2CN3CCC2CC3)CC1)N1CCCC1 [Example 10],100 to 1000 nM,0%,–
O=C(N[C@H](Cc1ccc(Cl)cc1Cl)C(=O)N1CCC(c2ncccc2O[C@H]2CN3CCC2CC3)CC1)N1CCCC1 [Example 26],100 to 1000 nM,0%,–
O=C(N[C@H](Cc1ccc(Cl)cc1Cl)C(=O)N1CCC(c2ncccc2OC2CN3CCC2CC3)CC1)N1CCCC1 (stereo partly drawn) [Example 29],100 to 1000 nM,0%,–
